# Data reported in article PMC13198257, “An aerosolized dual-action autotaxin inhibitor-PPARγ agonist for the treatment of pulmonary fibrosis” (Cell Reports Medicine, 2026).
# System: lung gene expression
# Assay: RNA sequencing of lung tissue (BLM/EL244 vs BLM)
# Type: in vivo, mouse
# Conditions: lung tissue, BLM/EL244 vs BLM
# Description: RNA quality was assessed using an Agilent TapeStation 4150 with the High Sensitivity […] ScreenTape (Agilent), according to the manufacturer’s protocols. For library preparation, the QuantSeq 3’mRNA-Seq Library Prep Kit (Lexogen) was used according to manufacturer’s instructions. Briefly, 500 ng of RNA from each sample was used for first-strand synthesis, followed by RNA template removal, and second-strand synthesis initiated by random primers. In-line barcodes were introduced at this step, and this was followed by magnetic bead-based purification. The resulting libraries were amplified for 15 cycles and re-purified, with quantity and quality assessed on a Qubit 4 Fluorometer with the Invitrogen Qubit dsDNA HS Assay and an Agilent Tapestation 4150 with the High Sensitivity D1000 assay kit, respectively. The quantified libraries were pooled equimolarly; 50ng of total library mix was used for Adapter Conversion PCR Amplification using the Universal Library Conversion Kit (App-A), Version: V1.0 (MGI Tech Co., Ltd.), according to the manufacturer’s instructions.
# The quantity and quality of the purified adapter conversion PCR (AC-PCR) product were evaluated on a Qubit 4 Fluorometer with the Invitrogen Qubit dsDNA HS Assay and on an Agilent Tapestation 4150 with the High Sensitivity D1000 assay kit, respectively. This was followed by DNA denaturation, Single-Strand Circularisation, Enzymatic Digestion, Enzymatic Digestion Product Cleanup and Quality Control steps on 1 pmol of AC-PCR product, according to the Universal Library Conversion Kit (App-A) User Manual (Version: A3).
# Finally, 60 fmol of ssCirDNA were used for DNB preparation and sequencing on a DNBSEQ-G400 platform at the BSRC Alexander Fleming Genomics Facility, using a G400 App-A FCS SE100 High-throughput Sequencing Set (MGI Tech Co., Ltd.), according to the manufacturer’s instructions.
# Alignment of the FASTQ files was performed against the mouse genome build mm10 using a custom Bash script.[143] Read counting on the 3′ UTRs and differential expression analysis were conducted using the metaseqR2 bioconductor package.[144] Genes corresponding to the following biotypes were excluded: polymorphic_pseudogene, processed_transcript, pseudogene, IG_V_pseudogene, misc_RNA, IG_C_gene, IG_J_gene, IG_D_gene, IG_LV_gene, TR_V_gene, TR_V_pseudogene, TEC, and processed_pseudogene. Gene counts were normalized with DESEQ[145] through metaseqR2. Genes with more than 10 counts in at least 50% of the samples were kept for further processing. For differential expression analysis, the PANDORA algorithm[146] was used to estimate a meta p-value integrating the results from the DESEQ, DESEQ2,[147] edgeR,[148] limma,[149] NBPSeq,[150] and NOISeq[151] algorithms. All additional parameters were set to default values.
# Pathway enrichment analysis was performed for the Gene Ontology Biological process (BP) and Molecular Function (MF) terms through GeneCodis 4.[152] The volcano plots, scatterplots, Venn diagrams, and dot plots were generated using the ggplot2 Bioconductor package.
smiles,measurement,value
"O=C1NC(=O)C(Cc2ccc(OCCC3CCN(C(=O)OCc4cc(Cl)cc(Cl)c4)CC3)cc2)S1 (stereo not shown) [EL244, 3,5-dichlorobenzyl 4-(2-(4-((2,4-dioxothiazolidin-5-yl)methyl)phenoxy)ethyl)piperidine-1-carboxylate]",Prrx2 nFC,0.30
same,Prss23 log2 nFC,0.67
same,Prss23 nFC,1.60
same,Ptprb log2 nFC,0.67
same,Ptprb nFC,1.59
same,Rad51 log2 nFC,-1.90
same,Rad51 nFC,0.27
same,Rad54l log2 nFC,-1.87
same,Rad54l nFC,0.27
same,Rbm33 log2 nFC,0.58
same,Rbm33 nFC,1.50
same,Rcan1 log2 nFC,-0.84
same,Rcan1 nFC,0.56
same,Rcn3 log2 nFC,-0.66
same,Rcn3 nFC,0.63
same,Retnla log2 nFC,-2.32
same,Retnla nFC,0.20
same,Rgs16 log2 nFC,-2.59
same,Rgs16 nFC,0.17
same,Rnaset2a log2 nFC,-0.70
same,Rnaset2a nFC,0.62
same,Rps27l log2 nFC,-0.70
same,Rps27l nFC,0.62
same,Rrm1 log2 nFC,-0.81
same,Rrm1 nFC,0.57
same,Rrm2 log2 nFC,-2.56
same,Rrm2 nFC,0.17
same,S100a11 log2 nFC,-0.60
same,S100a11 nFC,0.66
same,Saa3 log2 nFC,-2.75
same,Saa3 nFC,0.15
same,Sash1 log2 nFC,0.59
same,Sash1 nFC,1.50
same,Scarb1 log2 nFC,-0.72
same,Scarb1 nFC,0.61
same,Scgb3a2 log2 nFC,0.65
same,Scgb3a2 nFC,1.56
same,Selenop log2 nFC,0.58
same,Selenop nFC,1.50
same,Sfrp1 log2 nFC,-1.73
same,Sfrp1 nFC,0.30
same,Sftpc log2 nFC,0.62
same,Sftpc nFC,1.54
same,Sgo2a log2 nFC,-1.68
same,Sgo2a nFC,0.31
same,Sh3pxd2b log2 nFC,-0.78
same,Sh3pxd2b nFC,0.58
same,Shcbp1 log2 nFC,-1.60
same,Shcbp1 nFC,0.33
same,Sirpa log2 nFC,-0.71
same,Sirpa nFC,0.61
same,Ska1 log2 nFC,-2.52
same,Ska1 nFC,0.17
same,Slc7a11 log2 nFC,-1.50
same,Slc7a11 nFC,0.35
same,Slc36a1 log2 nFC,-0.81
same,Slc36a1 nFC,0.57
same,Slc39a1 log2 nFC,-0.63
same,Slc39a1 nFC,0.65
same,Snrnp40 log2 nFC,-0.60
same,Snrnp40 nFC,0.66
same,Snrpd1 log2 nFC,-0.64
same,Snrpd1 nFC,0.64
same,Socs3 log2 nFC,-0.62
same,Socs3 nFC,0.65
same,Sox4 log2 nFC,-0.80
same,Sox4 nFC,0.57
same,Sox9 log2 nFC,-1.42
same,Sox9 nFC,0.37
same,Spag5 log2 nFC,-1.65
same,Spag5 nFC,0.32
same,Sparc log2 nFC,-0.74
same,Sparc nFC,0.60
same,Spc25 log2 nFC,-2.02
same,Spc25 nFC,0.25
same,Spp1 log2 nFC,-1.50
same,Spp1 nFC,0.35
same,Ssc5d log2 nFC,-1.71
same,Ssc5d nFC,0.31
same,Ssh2 log2 nFC,0.66
same,Ssh2 nFC,1.58
same,Sting1 log2 nFC,-0.77
same,Sting1 nFC,0.59
same,Stmn1 log2 nFC,-0.70
same,Stmn1 nFC,0.62
same,Stxbp6 log2 nFC,0.64
same,Stxbp6 nFC,1.56
same,Tacc2 log2 nFC,0.66
same,Tacc2 nFC,1.57
same,Taf10 log2 nFC,-0.59
same,Taf10 nFC,0.67
same,Tceal9 log2 nFC,-0.69
same,Tceal9 nFC,0.62
same,Tcf19 log2 nFC,-1.42
same,Tcf19 nFC,0.37
same,Tfdp1 log2 nFC,-0.74
same,Tfdp1 nFC,0.60
same,Tgfbi log2 nFC,-0.68
same,Tgfbi nFC,0.62
same,Tgif1 log2 nFC,-0.75
same,Tgif1 nFC,0.60
same,Thbs4 log2 nFC,-2.34
same,Thbs4 nFC,0.20
same,Thoc6 log2 nFC,-0.81
same,Thoc6 nFC,0.57
same,Timm44 log2 nFC,-0.72
same,Timm44 nFC,0.61
same,Timp1 log2 nFC,-2.30
same,Timp1 nFC,0.20
same,Tk1 log2 nFC,-2.01
same,Tk1 nFC,0.25
same,Tmem37 log2 nFC,-0.82
same,Tmem37 nFC,0.57
same,Tmem252 log2 nFC,-0.70
same,Tmem252 nFC,0.62
same,Tmsb10 log2 nFC,-0.58
same,Tmsb10 nFC,0.67
same,Tnc log2 nFC,-2.35
same,Tnc nFC,0.20
same,Tnfrsf1b log2 nFC,-0.70
same,Tnfrsf1b nFC,0.61
same,Tnip3 log2 nFC,-1.47
same,Tnip3 nFC,0.36
same,Tns1 log2 nFC,0.67
same,Tns1 nFC,1.59
same,Top2a log2 nFC,-1.97
same,Top2a nFC,0.25
same,Tpx2 log2 nFC,-2.92
same,Tpx2 nFC,0.13
same,Trem2 log2 nFC,-1.42
same,Trem2 nFC,0.37
same,Trip13 log2 nFC,-1.42
same,Trip13 nFC,0.37
same,Tspan7 log2 nFC,0.64
same,Tspan7 nFC,1.56
same,Tubb5 log2 nFC,-0.77
same,Tubb5 nFC,0.59
same,Tubb6 log2 nFC,-0.75
same,Tubb6 nFC,0.59
same,Txnip log2 nFC,0.65
same,Txnip nFC,1.56
same,Tyrobp log2 nFC,-0.69
same,Tyrobp nFC,0.62
same,Ube2c log2 nFC,-1.80
same,Ube2c nFC,0.29
same,Uhrf1 log2 nFC,-1.72
same,Uhrf1 nFC,0.30
same,Utrn log2 nFC,0.68
same,Utrn nFC,1.60
same,Vangl2 log2 nFC,-0.76
same,Vangl2 nFC,0.59
same,Xcl1 log2 nFC,-1.81
same,Xcl1 nFC,0.29
same,Zfp46 log2 nFC,-0.70
same,Zfp46 nFC,0.62
same,Zranb3 log2 nFC,-1.43
same,Zranb3 nFC,0.37
same,Zwilch log2 nFC,-1.54
same,Zwilch nFC,0.34
same,log2 nFC 1500009L16Rik,-1.23
same,log2 nFC 2200002D01Rik,-0.88
same,log2 nFC AA467197,-1.39
same,log2 nFC Adamts2,-1.00
same,log2 nFC Areg,-1.03
same,log2 nFC Arhgap11a,-1.13
same,log2 nFC Armcx4,-1.32
same,log2 nFC Asf1b,-1.14
same,log2 nFC Bcl2a1b,-1.15
same,log2 nFC Bcl2a1d,-1.29
same,log2 nFC Bub1b,-1.19
same,log2 nFC C1qtnf5,-0.87
same,log2 nFC C1qtnf6,-1.38
same,log2 nFC Ccdc8,-1.11
same,log2 nFC Ccl9,-1.37
same,log2 nFC Ccl17,-0.95
same,log2 nFC Cd68,-0.99
same,log2 nFC Cd72,-1.01
same,log2 nFC Cd248,-1.25
same,log2 nFC Cd300c2,-0.89
same,log2 nFC Cdca2,-1.33
same,log2 nFC Cenpa,-1.31
same,log2 nFC Cenpw,-1.33
same,log2 nFC Cercam,-1.37
same,log2 nFC Ch25h,-0.91
same,log2 nFC Cilp,-1.39
same,log2 nFC Clcn5,-0.92
same,log2 nFC Clec4a2,-1.26
same,log2 nFC Clec4n,-1.39
same,log2 nFC Clec5a,-1.14
same,log2 nFC Clec11a,-1.00
same,log2 nFC Clec12a,-0.91
same,log2 nFC Col1a2,-1.41
same,log2 nFC Col8a1,-1.19
same,log2 nFC Col12a1,-0.90
same,log2 nFC Col15a1,-1.10
same,log2 nFC Col16a1,-0.92
same,log2 nFC Cotl1,-0.88
same,log2 nFC Csf2rb2,-0.99
same,log2 nFC Cstb,-0.95
same,log2 nFC Ctsk,-0.98
same,log2 nFC Ctss,-0.92
same,log2 nFC Cx3cr1,-1.17
same,log2 nFC Cyp7b1,-1.41
same,log2 nFC Dbn1,-0.88
same,log2 nFC Dclk1,-0.86
same,log2 nFC Diaph3,-1.13
same,log2 nFC Dio2,-1.39
same,log2 nFC Dok2,-1.37
same,log2 nFC Dut,-0.89
same,log2 nFC Egr2,-0.89
same,log2 nFC Epha4,-0.89
same,log2 nFC F10,-1.11
same,log2 nFC Fam20c,-1.06
same,log2 nFC Fbn1,-1.03
same,log2 nFC Fcgr1,-1.30
same,log2 nFC Fcgr2b,-1.08
same,log2 nFC Fcrls,-1.35
same,log2 nFC Fen1,-1.00
same,log2 nFC Fgf13,-1.40
same,log2 nFC Fkbp10,-1.25
same,log2 nFC Fndc1,-1.11
same,log2 nFC Fscn1,-1.22
same,log2 nFC Fst,-1.05
same,log2 nFC Fstl1,-1.21
same,log2 nFC Gas2l3,-1.32
same,log2 nFC Gm13889,-0.85
same,log2 nFC Gm25380,-1.01
same,log2 nFC Gm42674,-1.18
same,log2 nFC Gm49339,-0.94
